Results from ChEMBL document CHEMBL4373747 (ACS Med Chem Lett, 2020).

Experiments:
MV4-11 [1] = experiment: Induction of apoptosis in human MV4-11 cells assessed as late apoptotic cells at 4 uM incubated for 18 hrs by annexin V FITC and PI based flow cytometry (reference value: 9.2 to 9.63 %); type: functional
MV4-11 [2] = experiment: Induction of apoptosis in human MV4-11 cells assessed as late apoptotic cells at 1 uM incubated for 18 hrs by annexin V FITC and PI based flow cytometry (reference value: 9.2 to 9.63 %); type: functional
MV4-11 [3] = experiment: Induction of apoptosis in human MV4-11 cells assessed as late apoptotic cells at 0.5 uM incubated for 18 hrs by annexin V FITC and PI based flow cytometry (reference value: 9.2 to 9.63 %); type: functional
MV4-11 [4] = experiment: Induction of apoptosis in human MV4-11 cells assessed as early apoptotic cells at 2 uM incubated for 18 hrs by annexin V FITC and PI based flow cytometry (reference value: 19.46 to 22.17 %); type: functional
MV4-11 [5] = experiment: Induction of apoptosis in human MV4-11 cells assessed as viable cells at 2 uM incubated for 18 hrs by annexin V FITC and PI based flow cytometry (reference value: 53.01 to 53.07 %); type: functional
MV4-11 [6] = experiment: Induction of apoptosis in human MV4-11 cells assessed as early apoptotic cells at 1 uM incubated for 18 hrs by annexin V FITC and PI based flow cytometry (reference value: 19.46 to 22.17 %); type: functional
MV4-11 [7] = experiment: Induction of apoptosis in human MV4-11 cells assessed as viable cells at 0.25 uM incubated for 18 hrs by annexin V FITC and PI based flow cytometry (reference value: 53.01 to 53.07 %); type: functional
MV4-11 [8] = experiment: Induction of apoptosis in human MV4-11 cells assessed as viable cells at 0.5 uM incubated for 18 hrs by annexin V FITC and PI based flow cytometry (reference value: 53.01 to 53.07 %); type: functional
MV4-11 [9] = experiment: Induction of apoptosis in human MV4-11 cells assessed as late apoptotic cells incubated for 18 hrs by annexin V FITC and PI based flow cytometry; type: functional, cell-based
MV4-11 [10] = experiment: Induction of apoptosis in human MV4-11 cells assessed as late apoptotic cells at 0.25 uM incubated for 18 hrs by annexin V FITC and PI based flow cytometry (reference value: 9.2 to 9.63 %); type: functional
MV4-11 [11] = experiment: Cytotoxicity against human MV4-11 cells assessed as reduction in cell viability incubated for 72 hrs by cell-titer blue assay; type: functional, cell-based; details: MV4-11, 72 h
MV4-11 [12] = experiment: Induction of apoptosis in human MV4-11 cells assessed as viable cells at 4 uM incubated for 18 hrs by annexin V FITC and PI based flow cytometry (reference value: 53.01 to 53.07 %); type: functional
MV4-11 [13] = experiment: Induction of apoptosis in human MV4-11 cells assessed as viable cells at 1 uM incubated for 18 hrs by annexin V FITC and PI based flow cytometry (reference value: 53.01 to 53.07 %); type: functional
MV4-11 [14] = experiment: Induction of apoptosis in human MV4-11 cells assessed as early apoptotic cells at 4 uM incubated for 18 hrs by annexin V FITC and PI based flow cytometry (reference value: 19.46 to 22.17 %); type: functional
[15] = Oral bioavailability in Balb/c nude mouse at 50 mg/kg measured upto 24 hrs by LC/MS/MS analysis; type: ADME, organism-based; details: in vivo
MV4-11 [16] = experiment: Induction of apoptosis in human MV4-11 cells assessed as late apoptotic cells at 2 uM incubated for 18 hrs by annexin V FITC and PI based flow cytometry (reference value: 9.2 to 9.63 %); type: functional
MV4-11 [17] = experiment: Induction of apoptosis in human MV4-11 cells assessed as early apoptotic cells at 0.25 uM incubated for 18 hrs by annexin V FITC and PI based flow cytometry (reference value: 19.46 to 22.17 %); type: functional
MV4-11 [18] = experiment: Induction of apoptosis in human MV4-11 cells assessed as early apoptotic cells at 0.5 uM incubated for 18 hrs by annexin V FITC and PI based flow cytometry (reference value: 19.46 to 22.17 %); type: functional

**Q.** Which Activity (MV4-11 [1]) does the source give for `O=C(CCCCCCC(=O)Nc1ccccc1)NO` [VORINOSTAT] here?
**A.** The Activity was 26.52%.

**Q.** And the Activity (MV4-11 [2])?
**A.** The Activity was 27.29%.

**Q.** And the Activity (MV4-11 [3])?
**A.** The Activity was 11.46%.

**Q.** What about the Activity (MV4-11 [4]) of the same compound?
**A.** Its Activity is 35.72%.

**Q.** And the Activity (MV4-11 [5])?
**A.** Its Activity is 24.13%.

**Q.** What about the Activity (MV4-11 [6]) of the same compound?
**A.** Its Activity is 24.22%.

**Q.** What about the Activity (MV4-11 [7]) of the same compound?
**A.** The Activity was 51.83%.

**Q.** And the Activity (MV4-11 [8])?
**A.** Its Activity is 38.87%.

**Q.** What about the Activity (MV4-11 [9]) of the same compound?
**A.** Its Activity is “Dose-dependent effect”.

**Q.** What about the Activity (MV4-11 [10]) of the same compound?
**A.** Its Activity is 12.72%.

**Q.** And the IC50 (MV4-11 [11])?
**A.** The IC50 was 310 nM.

**Q.** And the Activity (MV4-11 [12])?
**A.** Its Activity is 20.37%.

**Q.** And the Activity (MV4-11 [13])?
**A.** Its Activity is 28.82%.

**Q.** What about the Activity (MV4-11 [14]) of the same compound?
**A.** Its Activity is 35.44%.

**Q.** And the bioavailability [15]?
**A.** The bioavailability was 8%.

**Q.** And the Activity (MV4-11 [16])?
**A.** Its Activity is 30.07%.

**Q.** What about the Activity (MV4-11 [17]) of the same compound?
**A.** Its Activity is 19.79%.

**Q.** What about the Activity (MV4-11 [18]) of the same compound?
**A.** The Activity was 15.37%.
